Measurements: patent US20050191267A1, “Anti-photoaging cosmeceutical composition” (priority 2004, published 2005)

Tested on: inflamed ears of experimental mice
Assay: Anti-inflammatory activity on ethyl phenyl propyolate-inflamed mice ears
Format: in vivo
Method: The test for anti-inflammatory activity can be done on lab mice by applying ethyl phenyl propyolate on mice ears at a concentration of 1 mg per ear to induce inflammation. The fullest swollen ear can be observed 1 hour after the application, then the tested extracts and reference compound, dexamethasone, are applied onto the inflamed ears at a dose of 0.05 mg/ear. The reduction in the thickness of the ears in comparison with the control group indicates anti-inflammatory activity, as shown in Table 1.

Q: For C[C@@H]1C[C@H]2[C@@H]3CCC4=CC(=O)C=C[C@]4(C)[C@@]3(F)[C@@H](O)C[C@]2(C)[C@@]1(O)C(=O)CO [Anti-inflammatory, Dexamethasone], which “Percentage reduction of inflamed ears” value (0 min, ethyl phenyl propyolate 1 mg per ear) is on record?
A: Its value is 0%.

Q: And the “Percentage reduction of inflamed ears” value (60 min after inducer (fullest swelling, time of application), 0.05 mg/ear)?
A: Its value is 54.253%.

Q: What about the “Percentage reduction of inflamed ears” value (90 min, 0.05 mg/ear topical) of the same molecule?
A: Its value is 42.533%.

Q: What about the “Percentage reduction of inflamed ears” value (120 min, 0.05 mg/ear topical) of the same molecule?
A: Its value is 38.752%.

Q: What about the “Percentage reduction of inflamed ears” value (240 min, 0.05 mg/ear topical) of the same molecule?
A: The value was 25.142%.

Q: What about the “Percentage reduction of inflamed ears” value (360 min, 0.05 mg/ear topical) of the same molecule?
A: Its value is 13.422%.

Q: And the “Percentage reduction of inflamed ears” value (480 min, 0.05 mg/ear topical)?
A: The value was 11.531%.
